This assay concerns 192522-019-R-J2-PDC complex tumor spheroid viability. As to the kind of experiment: Anticancer human tumor 192522-019-R-J2-PDC patient-derived colon adenocarcinoma cell line growth inhibition [POLQ]. Particulars: for viability, T/C: stronger effect = lower value. The gist of the method: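 Growth inhibition in 3D: complex spheroids (tumor PDC, HUVEC, MSC) treated with POLQ inhibitor combinations; where Cmax unknown, highest tested concentration 10 microM, except SN-38 at 1 microM.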

Several values for one entry are separate records, joined by “and”; a condition that tells them apart may be missing. Equal values may be shown once. Some results are limits rather than exact numbers.
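Further: spheroids exposed to drugs for seven days before reading.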
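Wherever viability, T/C is given: 100% = DMSO vehicle control viability in luminescence.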

Usually viability, T/C stands for the result in the treated group divided by that in the control group, in per cent. In general, IC50 refers to the concentration that inhibits the measured activity by half. On to `O=C(c1cc(Cc2n[nH]c(=O)c3ccccc23)ccc1F)N1CCN(C(=O)C2CC2)CC1`, for which the viability, T/C reads like this: (compound 0.0316 µM) 99.6% and 98.7% and 100%; (compound 0.1 µM) 99% and 96.3% and 98.5%; (compound 0.316 µM) 96.2% and 100% and 101%; (compound 1 µM) 91.8% and 106% and 102%; (compound 3.16 µM) 97.4% and 116% and 113%; (compound 10 µM) 102% and 100% and 101%. Also, where the note is “curve of compound”, the IC50 is more than 10000 nM.

On to `CC1COCCN1c1cc(C2(O)CC3CCC(C2)O3)c2cnn(-c3ccn[nH]3)c2n1` (stereo not given), for which the viability, T/C reads like this: (compound 0.0316 µM) 108% and 105% and 100%; (compound 0.1 µM) 70.7% and 76.9% and 78.7%; (compound 0.316 µM) 42% and 35.6% and 46%; (compound 1 µM) 33.8% and 33.4% and 34.9%; (compound 3.16 µM) 45.5% and 42.6% and 44.3%; (compound 10 µM) 49.2% and 50.7% and 51.2%. In addition, the IC50 (curve of compound) was 234 nM and 235 nM and 272 nM.

In the case of `COc1cc2cc(C(=O)CCC(=O)O)sc2cc1OC`, the viability, T/C reads like this: (compound 0.0316 µM) 103% and 106% and 111%; (compound 0.1 µM) 102% and 92.6% and 99.8%; (compound 0.316 µM) 90.1% and 107% and 96.3%; (compound 1 µM) 96.8% and 99.9% and 102%; (compound 3.16 µM) 115% and 103% and 100%; (compound 10 µM) 100% and 98.1% and 91.6%. In addition, the IC50 (curve of compound) is more than 10000 nM.

As to `CCc1c2c(nc3ccc(O)cc13)-c1cc3c(c(=O)n1C2)COC(=O)[C@]3(O)CC`, the viability, T/C (compound 0.00316 µM) was 109% and 91.9% and 85.5%; the viability, T/C (compound 0.0316 µM) is 70.5% and 78% and 56.7%; the viability, T/C (compound 0.1 µM) was 56.5% and 58.4% and 51.8%; the viability, T/C (compound 0.316 µM) is 44.4% and 42.9% and 32.3%; the viability, T/C (compound 1 µM) is 27.6% and 37.6% and 25.5%. For the same molecule, where the note is “curve of compound”, the IC50 is 128 nM and 200 nM and 50.2 nM.

With `CC(C)n1c(=O)n(C)c2cnc3cc(F)c(-c4ccc(OCCCN5CCCCC5)nc4)cc3c21`, the viability, T/C is, setting by setting: (compound 0.0316 µM) 102% and 106% and 98.7%; (compound 0.1 µM) 87.7% and 95.6% and 105%; (compound 0.316 µM) 89.9% and 108% and 92.3%; (compound 1 µM) 114% and 122% and 112%; (compound 3.16 µM) 118% (2×) and 130%; (compound 10 µM) 92.8% and 101% and 90.6%. For the same molecule, the IC50 (curve of compound) is more than 10000 nM.

As to `CC1COCCN1c1cc(-c2ccnn2C)c2ccnc(-c3ccn[nH]3)c2n1` (stereo not given) + COC1C(OC(N)=O)C(O)C(Oc2ccc3c(O)c(NC(=O)c4ccc(O)c(CC=C(C)C)c4)c(=O)oc3c2C)OC1(C)C, the IC50 (curve of first compound, second compound 0.0316 µM) amounted to 248 nM; the IC50 (curve of first compound, second compound 0.1 µM) is 304 nM; the IC50 (curve of first compound, second compound 0.316 µM) was determined as 385 nM; the IC50 (curve of first compound, second compound 1 µM) was determined as 304 nM; the IC50 (curve of first compound, second compound 3.16 µM) came to 304 nM; the IC50 (curve of first compound, second compound 10 µM) amounted to 294 nM. For the same molecule, the viability, T/C reads like this: (second compound 0.0316 µM, first compound 0.0316 µM) 92.7%; (second compound 0.0316 µM, first compound 0.1 µM) 70.6%; (second compound 0.0316 µM, first compound 0.316 µM) 45.5%; (second compound 0.0316 µM, first compound 1 µM) 34.8%; (second compound 0.0316 µM, first compound 3.16 µM) 38.4%; (second compound 0.0316 µM, first compound 10 µM) 45%. Further, the viability, T/C amounted to 103% (second compound 0.1 µM, first compound 0.0316 µM); 80.9% (second compound 0.1 µM, first compound 0.1 µM); 50.3% (second compound 0.1 µM, first compound 0.316 µM); 35.9% (second compound 0.1 µM, first compound 1 µM); 36.9% (second compound 0.1 µM, first compound 3.16 µM); 45.9% (second compound 0.1 µM, first compound 10 µM). The viability, T/C runs as follows: (second compound 0.316 µM, first compound 0.0316 µM) 93.4%; (second compound 0.316 µM, first compound 0.1 µM) 84.1%; (second compound 0.316 µM, first compound 0.316 µM) 52.8%; (second compound 0.316 µM, first compound 1 µM) 35.4%; (second compound 0.316 µM, first compound 3.16 µM) 39.1%; (second compound 0.316 µM, first compound 10 µM) 47.6%. In addition, the viability, T/C came out at 101% (second compound 1 µM, first compound 0.0316 µM); 87.6% (second compound 1 µM, first compound 0.1 µM); 49.5% (second compound 1 µM, first compound 0.316 µM); 33.8% (second compound 1 µM, first compound 1 µM); 33.6% (second compound 1 µM, first compound 3.16 µM); 47.2% (second compound 1 µM, first compound 10 µM). Also, the viability, T/C (second compound 3.16 µM, first compound 0.0316 µM) was found to be 98.6%; the viability, T/C (second compound 3.16 µM, first compound 0.1 µM) worked out at 86.1%; the viability, T/C (second compound 3.16 µM, first compound 0.316 µM) amounted to 49.5%; the viability, T/C (second compound 3.16 µM, first compound 1 µM) was 34.6%; the viability, T/C (second compound 3.16 µM, first compound 3.16 µM) turned out to be 43.1%; the viability, T/C (second compound 3.16 µM, first compound 10 µM) came out at 48.3%. Further, the viability, T/C was found to be 103% (second compound 10 µM, first compound 0.0316 µM); 77.6% (second compound 10 µM, first compound 0.1 µM); 50.2% (second compound 10 µM, first compound 0.316 µM); 32.3% (second compound 10 µM, first compound 1 µM); 44.9% (second compound 10 µM, first compound 3.16 µM); 46.8% (second compound 10 µM, first compound 10 µM).

Take `Cn1ncnc1[C@H]1c2n[nH]c(=O)c3cc(F)cc(c23)N[C@@H]1c1ccc(F)cc1`: the viability, T/C (compound 0.000316 µM) is 107% and 103% and 109%; the viability, T/C (compound 0.001 µM) was 95.2% and 97.2% and 98.7%; the viability, T/C (compound 0.00316 µM) is 95.3% and 101% and 95.1%; the viability, T/C (compound 0.01 µM) was 107% and 103% and 104%; the viability, T/C (compound 0.0316 µM) is 103% and 104% and 98.2%; the viability, T/C (compound 0.1 µM) was 91.1% and 96.3% and 85.5%. For the same molecule, under “curve of compound”, the IC50 is more than 100 nM.

Consider `CCc1cc2c(N3CCc4c(cc(Cn5ccnc5)cc4-c4cn(C)nc4C(F)(F)F)C3=O)ccnc2c(OC)n1`, for which the viability, T/C is, setting by setting: (compound 0.0316 µM) 102% (2×) and 107%; (compound 0.1 µM) 84.3% and 91.4% and 86.7%; (compound 0.316 µM) 88.2% and 90.7% and 92.4%; (compound 1 µM) 87.8% and 81.3% and 83.7%; (compound 3.16 µM) 76.5% and 75.1% and 70.2%; (compound 10 µM) 65.6% and 72.1% and 73%. The IC50 (curve of compound) was more than 10000 nM.

(Values after PubChem BioAssay AID1963850 (Molecular Pharmacology Branch, DTP, NCI, 2024).)
